Patent US20110182949A1, “STABILIZED TRANSDERMAL DRUG DELIVERY SYSTEM” (priority 2008, published 2011)

Experiment: Glass transition temperature (DSC)
Format: physicochemical
Conditions: amorphous drug, dispersed in patch or undispersed
Procedure: Example 1: To a glass jar Plastone 29/32 (12 g) and ethanol (7.56 g) were added. The admixture was mixed with a spatula, heated and sonicated in a water bath at 45° C. until a viscous solution was formed. To the solution was added scopolamine base (4.00 g). The admixture was mixed with a spatula, heated, sonicated and swirled until a clear viscous solution was formed. After the solution was cooled for a while, Dow Corning silicone adhesive 7-4302 (40.82 g, 60% solid) and ethyl acetate (8.34 g) were added. The material was quickly mixed at high shear to provide a cream-like uniform suspension. After air bubbles were removed by rolling overnight, the suspension was coated to a release liner, dried at room temperature for 5 minutes, in an oven set at 40° C. for 5 minutes and in an oven set at 85° C. for 5 minutes to form a thin layer of adhesive on release liner. A backing film Mediflex® 1502 was laminated to the adhesive side. Individual patches were die-cut and pouched.

| SMILES | glass transition temperature (Tg) |
| --- | --- |
| O=C1CC[C@@]2(O)[C@H]3Cc4ccc(O)c5c4[C@@]2(CCN3CC2CC2)[C@H]1O5 [naltrexone] | 79.5 °C |
| CN1[C@@H]2C[C@@H](OC(=O)[C@H](CO)c3ccccc3)C[C@H]1[C@@H]1O[C@@H]12 [undispersed amorphous scopolamine, scopolamine] | about 10 °C |
